Source: article PMC10174618, “Monoterpenoid aryl hydrocarbon receptor allosteric antagonists protect against ultraviolet skin damage in female mice” (Nature Communications, 2023)

Tests used:
Test in all cases: biochemical
Design in all cases: KINOMEscan scanMAX active site-directed competition binding assay, percent of control, 468 kinases
Details in all cases: competition binding, percent of control
[1] = molecular target: T1, RSK2(Kin.Dom.2-C-terminal) (Homo sapiens, UniProt P51812)
T1 construct: gene RPS6KA3; Kin.Dom.2-C-terminal
Outline: (§1)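 Single-concentration screen (100 μM S-carvone) in a competition binding panel of 468 human kinases (KINOMEscan scanMAX); results given as percent of control, hit cutoff 35%.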

[2] = molecular target: EGFR(G719C) (Homo sapiens, UniProt P00533, G719C)
Outline: as §1

[3] = molecular target: MARK2 (Homo sapiens, UniProt Q7KZI7)
Outline: as §1

[4] = molecular target: T2, MEK5 (Homo sapiens, UniProt Q13163)
T2 construct: gene MAP2K5
Outline: as §1

[5] = molecular target: PAK1 (Homo sapiens, UniProt Q13153)
Outline: as §1

[6] = molecular target: T3, ICK (Homo sapiens, UniProt Q9UPZ9)
T3 construct: gene CILK1
Outline: as §1

[7] = molecular target: MARK4 (Homo sapiens, UniProt Q96L34)
Outline: as §1

[8] = molecular target: CIT (Homo sapiens, UniProt O14578)
Sequence of CIT (O14578 whole entry): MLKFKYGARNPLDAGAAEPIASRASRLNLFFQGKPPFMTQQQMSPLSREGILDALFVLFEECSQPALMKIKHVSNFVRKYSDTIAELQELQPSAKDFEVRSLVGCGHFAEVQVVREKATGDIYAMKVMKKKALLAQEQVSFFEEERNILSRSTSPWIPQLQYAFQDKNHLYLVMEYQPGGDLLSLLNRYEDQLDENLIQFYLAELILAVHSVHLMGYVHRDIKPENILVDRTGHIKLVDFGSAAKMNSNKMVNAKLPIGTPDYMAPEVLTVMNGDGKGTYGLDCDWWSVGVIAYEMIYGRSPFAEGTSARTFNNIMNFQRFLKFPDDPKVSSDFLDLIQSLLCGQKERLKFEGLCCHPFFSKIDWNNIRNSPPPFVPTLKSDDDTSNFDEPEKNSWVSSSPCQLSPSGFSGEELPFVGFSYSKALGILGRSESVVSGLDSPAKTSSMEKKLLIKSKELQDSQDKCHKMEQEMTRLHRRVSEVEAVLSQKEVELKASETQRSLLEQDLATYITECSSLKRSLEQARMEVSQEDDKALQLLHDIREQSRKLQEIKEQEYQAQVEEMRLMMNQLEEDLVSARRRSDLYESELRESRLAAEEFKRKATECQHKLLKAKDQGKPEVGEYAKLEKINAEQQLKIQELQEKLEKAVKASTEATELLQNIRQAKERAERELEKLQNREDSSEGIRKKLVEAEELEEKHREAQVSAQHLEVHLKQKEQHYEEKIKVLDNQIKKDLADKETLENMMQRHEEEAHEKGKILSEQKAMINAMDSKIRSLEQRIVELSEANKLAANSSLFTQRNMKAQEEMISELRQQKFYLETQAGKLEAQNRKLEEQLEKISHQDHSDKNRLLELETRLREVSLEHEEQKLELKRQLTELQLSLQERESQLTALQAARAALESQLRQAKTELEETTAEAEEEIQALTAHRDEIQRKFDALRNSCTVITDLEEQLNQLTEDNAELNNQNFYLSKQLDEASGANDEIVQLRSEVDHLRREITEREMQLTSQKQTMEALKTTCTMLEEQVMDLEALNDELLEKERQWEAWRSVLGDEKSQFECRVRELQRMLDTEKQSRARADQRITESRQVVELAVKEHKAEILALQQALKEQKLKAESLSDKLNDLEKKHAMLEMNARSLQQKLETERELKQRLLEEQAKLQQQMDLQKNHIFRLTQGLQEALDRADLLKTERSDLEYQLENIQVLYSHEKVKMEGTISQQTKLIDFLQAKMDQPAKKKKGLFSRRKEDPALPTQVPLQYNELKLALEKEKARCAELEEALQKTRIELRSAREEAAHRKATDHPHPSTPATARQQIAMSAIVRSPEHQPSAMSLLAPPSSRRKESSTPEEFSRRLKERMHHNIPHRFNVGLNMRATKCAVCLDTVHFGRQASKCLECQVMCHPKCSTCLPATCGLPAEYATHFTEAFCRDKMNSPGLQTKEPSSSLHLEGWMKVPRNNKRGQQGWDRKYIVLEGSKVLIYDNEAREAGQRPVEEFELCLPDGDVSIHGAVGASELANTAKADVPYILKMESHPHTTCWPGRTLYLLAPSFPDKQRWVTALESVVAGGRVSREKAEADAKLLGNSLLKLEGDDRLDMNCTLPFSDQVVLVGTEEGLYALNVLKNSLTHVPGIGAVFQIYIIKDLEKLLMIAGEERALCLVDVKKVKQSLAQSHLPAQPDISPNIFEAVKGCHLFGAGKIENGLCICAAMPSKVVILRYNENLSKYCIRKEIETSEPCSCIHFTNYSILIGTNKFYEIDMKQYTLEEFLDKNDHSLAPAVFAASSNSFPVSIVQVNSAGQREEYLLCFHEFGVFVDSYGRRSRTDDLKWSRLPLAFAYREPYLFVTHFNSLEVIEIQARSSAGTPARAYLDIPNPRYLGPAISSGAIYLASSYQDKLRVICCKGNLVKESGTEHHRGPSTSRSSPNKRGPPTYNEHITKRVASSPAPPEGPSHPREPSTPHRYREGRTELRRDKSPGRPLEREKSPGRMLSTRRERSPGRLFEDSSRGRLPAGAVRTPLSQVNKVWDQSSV
Outline: as §1

[9] = molecular target: RET(V804M) (Homo sapiens, UniProt P07949, V804M)
Sequence of RET(V804M) (P07949 whole entry V804M): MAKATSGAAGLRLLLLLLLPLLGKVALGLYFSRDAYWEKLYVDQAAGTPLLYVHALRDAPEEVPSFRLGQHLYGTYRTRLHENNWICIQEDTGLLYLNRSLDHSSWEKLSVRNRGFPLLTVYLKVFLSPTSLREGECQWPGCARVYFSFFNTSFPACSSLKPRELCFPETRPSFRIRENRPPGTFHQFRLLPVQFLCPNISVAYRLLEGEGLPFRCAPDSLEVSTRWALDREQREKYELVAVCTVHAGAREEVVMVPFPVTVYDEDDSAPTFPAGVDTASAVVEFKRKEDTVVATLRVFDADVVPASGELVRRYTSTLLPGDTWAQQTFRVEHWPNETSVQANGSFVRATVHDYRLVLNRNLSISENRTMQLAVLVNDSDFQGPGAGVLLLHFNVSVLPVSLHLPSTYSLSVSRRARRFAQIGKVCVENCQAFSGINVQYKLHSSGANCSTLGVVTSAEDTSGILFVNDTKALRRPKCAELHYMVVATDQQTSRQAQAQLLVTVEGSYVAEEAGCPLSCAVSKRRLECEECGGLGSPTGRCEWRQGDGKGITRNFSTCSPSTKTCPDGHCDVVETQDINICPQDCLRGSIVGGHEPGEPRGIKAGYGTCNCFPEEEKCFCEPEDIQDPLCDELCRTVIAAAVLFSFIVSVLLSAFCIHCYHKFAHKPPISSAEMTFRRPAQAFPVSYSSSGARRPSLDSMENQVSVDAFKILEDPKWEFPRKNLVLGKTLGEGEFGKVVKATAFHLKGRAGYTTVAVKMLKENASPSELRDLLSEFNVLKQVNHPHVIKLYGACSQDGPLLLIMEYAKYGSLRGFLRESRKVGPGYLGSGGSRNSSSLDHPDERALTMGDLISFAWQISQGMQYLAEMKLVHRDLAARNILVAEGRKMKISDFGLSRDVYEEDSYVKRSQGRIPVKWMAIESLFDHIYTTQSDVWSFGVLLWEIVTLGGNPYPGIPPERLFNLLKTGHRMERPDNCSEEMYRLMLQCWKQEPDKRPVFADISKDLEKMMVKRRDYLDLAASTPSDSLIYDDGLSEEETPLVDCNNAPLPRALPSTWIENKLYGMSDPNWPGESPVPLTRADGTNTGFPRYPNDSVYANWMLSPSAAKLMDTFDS
Outline: as §1

[10] = molecular target: LRRK2(G2019S) (Homo sapiens, UniProt Q5S007, G2019S)
Outline: as §1

[11] = molecular target: PHKG1 (Homo sapiens, UniProt Q16816)
Outline: as §1

[12] = molecular target: T4, ABL1-phosphorylated (Homo sapiens, UniProt P00519)
T4 construct: phosphorylated
Outline: as §1

[13] = molecular target: DYRK2 (Homo sapiens, UniProt Q92630)
Outline: as §1

[14] = molecular target: T5, S6K1 (Homo sapiens, UniProt P23443)
T5 construct: gene RPS6KB1
Outline: as §1

[15] = molecular target: TIE1 (Homo sapiens, UniProt P35590)
Outline: as §1

[16] = molecular target: CAMK1G (Homo sapiens, UniProt Q96NX5)
Sequence of CAMK1G (Q96NX5 whole entry): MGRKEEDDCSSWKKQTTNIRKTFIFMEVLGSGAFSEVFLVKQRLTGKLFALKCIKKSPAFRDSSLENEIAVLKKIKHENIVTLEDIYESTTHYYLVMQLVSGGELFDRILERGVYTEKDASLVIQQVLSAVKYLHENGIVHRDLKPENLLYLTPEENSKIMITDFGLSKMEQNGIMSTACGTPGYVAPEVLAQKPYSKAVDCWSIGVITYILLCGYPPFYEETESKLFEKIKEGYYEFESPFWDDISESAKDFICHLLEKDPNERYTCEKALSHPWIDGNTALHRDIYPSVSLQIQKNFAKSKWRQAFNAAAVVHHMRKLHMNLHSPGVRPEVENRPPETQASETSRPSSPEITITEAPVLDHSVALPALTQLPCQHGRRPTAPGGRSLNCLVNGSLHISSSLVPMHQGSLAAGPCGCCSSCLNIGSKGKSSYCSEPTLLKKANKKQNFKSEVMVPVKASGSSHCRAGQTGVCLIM
Outline: as §1

[17] = molecular target: T6, JAK1(JH1domain-catalytic) (Homo sapiens, UniProt P23458)
T6 construct: JH1domain-catalytic
Outline: as §1

[18] = molecular target: T7, JNK2 (Homo sapiens, UniProt P45984)
T7 construct: gene MAPK9
Outline: as §1

[19] = molecular target: KIT(L576P) (Homo sapiens, UniProt P10721, L576P)
Sequence of KIT(L576P) (P10721 whole entry L576P): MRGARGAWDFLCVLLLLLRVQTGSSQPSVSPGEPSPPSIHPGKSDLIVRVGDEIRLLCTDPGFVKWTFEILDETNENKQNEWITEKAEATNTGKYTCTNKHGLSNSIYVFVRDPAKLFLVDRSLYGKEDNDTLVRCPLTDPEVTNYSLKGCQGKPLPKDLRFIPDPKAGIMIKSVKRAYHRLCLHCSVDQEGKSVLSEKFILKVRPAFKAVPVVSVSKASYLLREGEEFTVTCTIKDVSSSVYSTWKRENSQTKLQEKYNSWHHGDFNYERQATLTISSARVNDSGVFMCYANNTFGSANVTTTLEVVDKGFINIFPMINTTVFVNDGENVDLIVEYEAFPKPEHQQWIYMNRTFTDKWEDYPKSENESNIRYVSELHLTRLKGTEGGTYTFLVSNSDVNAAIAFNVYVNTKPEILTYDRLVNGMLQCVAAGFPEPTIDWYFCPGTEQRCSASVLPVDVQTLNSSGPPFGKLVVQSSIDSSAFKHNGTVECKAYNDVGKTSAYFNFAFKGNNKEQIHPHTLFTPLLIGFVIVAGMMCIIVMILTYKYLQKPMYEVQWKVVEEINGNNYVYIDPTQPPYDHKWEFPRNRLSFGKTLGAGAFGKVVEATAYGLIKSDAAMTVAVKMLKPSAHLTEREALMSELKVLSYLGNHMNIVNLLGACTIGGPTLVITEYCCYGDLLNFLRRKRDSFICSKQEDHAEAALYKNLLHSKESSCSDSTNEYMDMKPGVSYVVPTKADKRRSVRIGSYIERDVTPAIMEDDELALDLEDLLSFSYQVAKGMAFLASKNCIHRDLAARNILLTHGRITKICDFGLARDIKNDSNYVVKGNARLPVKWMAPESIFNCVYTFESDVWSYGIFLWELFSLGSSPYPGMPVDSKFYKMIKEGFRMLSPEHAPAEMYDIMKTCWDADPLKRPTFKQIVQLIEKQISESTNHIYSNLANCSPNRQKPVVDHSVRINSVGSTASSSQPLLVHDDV
Outline: as §1

[20] = molecular target: T8, NIM1 (Homo sapiens, UniProt Q8IY84)
T8 construct: gene NIM1K
T8 sequence (Q8IY84 whole entry): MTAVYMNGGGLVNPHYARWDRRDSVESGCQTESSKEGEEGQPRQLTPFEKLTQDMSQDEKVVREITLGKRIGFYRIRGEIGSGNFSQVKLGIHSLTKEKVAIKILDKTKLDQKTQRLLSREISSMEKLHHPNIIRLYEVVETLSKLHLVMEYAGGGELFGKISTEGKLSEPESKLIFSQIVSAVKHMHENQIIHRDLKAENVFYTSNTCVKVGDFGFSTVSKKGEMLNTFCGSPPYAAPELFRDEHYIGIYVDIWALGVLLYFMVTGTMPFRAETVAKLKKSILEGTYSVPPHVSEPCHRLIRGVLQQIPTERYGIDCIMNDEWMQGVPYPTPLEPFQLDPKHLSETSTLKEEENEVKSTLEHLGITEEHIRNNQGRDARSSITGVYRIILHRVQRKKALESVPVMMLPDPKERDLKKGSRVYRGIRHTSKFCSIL
Outline: as §1

[21] = molecular target: TNIK (Homo sapiens, UniProt Q9UKE5)
Outline: as §1

remaining binding at 100 µM [1]: 67%
remaining binding at 100 µM [2]: 74%
remaining binding at 100 µM [3]: 100%
remaining binding at 100 µM [4]: 74%
remaining binding at 100 µM [5]: 66%
remaining binding at 100 µM [6]: 97%
remaining binding at 100 µM [7]: 73%
remaining binding at 100 µM [8]: 81%
remaining binding at 100 µM [9]: 96%
remaining binding at 100 µM [10]: 81%
remaining binding at 100 µM [11]: 100%
remaining binding at 100 µM [12]: 73%
remaining binding at 100 µM [13]: 93%
remaining binding at 100 µM [14]: 93%
remaining binding at 100 µM [15]: 89%
remaining binding at 100 µM [16]: 89%
remaining binding at 100 µM [17]: 100%
remaining binding at 100 µM [18]: 95%
remaining binding at 100 µM [19]: 71%
remaining binding at 100 µM [20]: 65%
remaining binding at 100 µM [21]: 84%
Compound: C=C(C)[C@H]1CC=C(C)C(=O)C1 [S-carvone]
